Measured values published in patent publication US10105377B2, “Compounds and nail polish” (Anacor Pharmaceuticals, Inc., priority 2014, dated 2018).

Tests used:
[1] = Tavaborole penetration of fingernails with one, two, or four layers of nail polish (vertical diffusion cells); format: in vitro ADME, human; settings: from Tavaborole Topical Solution, 5%; through up to four layers of nail polish
From the text: Female human ex vivo, cadaver fingernails from eight donors were cleaned of any underlying tissue, rinsed with water to remove any additional materials from the surface and then characterized for width, length, thickness, and weight. Four different treatment groups were used to evaluate different nail polish application practices. In the first treatment group, one nail from each of seven donors (randomized to treatment group) was painted according to the first nail polish application practice. In the second treatment group, a second nail from each of seven donors (randomized to treatment group) was painted according to the second nail polish application practice. In the third treatment group, a third nail from each of seven donors (randomized to treatment group) was painted according to the third nail polish application practice. In the fourth treatment group, a fourth nail from each of seven donors (randomized to treatment group) was painted according to the fourth nail polish application practice. […]
Vertical diffusion cells were filled with pre-warmed receiving medium of phosphate buffered saline (pH 7.4) and a small stir bar, and were allowed to equilibrate to 32±1.0° C. The cell volumes were determined prior to initiating the study. […] Prior to dosing, each cell was evaluated for leaks. […]

[2] = ex vivo human cadaver fingernails; relative to ciclopirox; cited from earlier work

SMILES: OB1OCc2cc(F)ccc21 [tavaborole, 5-fluoro-1,3-dihydro-1-hydroxy-2,1-benzoxaborole]
- penetration through layers of nail polish (in words) [1]: able to penetrate
- quantity through the nail compared with ciclopirox [2]: 250 fold
